According to PubChem BioAssay AID1919013 (Molecular Pharmacology Branch, DTP, NCI, 2023):
pIC50: −log10 of the molar value. One block for each molecule: values may come before it.

Test system: LG0703-F498-PDC complex spheroid growth
Experiment: Anticancer human tumor LG0703-F498-PDC patient-derived lung adenocarcinoma cell line growth inhibition [AhR]
Settings: for pIC50: curve of first compound; for viability, T/C: stronger effect = lower value
Procedure, shortened: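 Spheroids combined tumor cells with HUVEC endothelial cells and human MSCs as stroma. AhR antagonists were paired with standard or investigational drugs, each dosed in half-log steps down from near clinical Cmax, or from 10 microM where Cmax was unknown.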

[1] = second compound 0.1 µM, first compound 0.0316 µM
[2] = second compound 0.1 µM, first compound 0.1 µM
[3] = second compound 0.1 µM, first compound 0.316 µM
[4] = second compound 0.1 µM, first compound 1 µM
[5] = second compound 0.1 µM, first compound 3.16 µM
[6] = second compound 0.1 µM, first compound 10 µM
[7] = second compound 0.316 µM, first compound 0.0316 µM
[8] = second compound 0.316 µM, first compound 0.1 µM
[9] = second compound 0.316 µM, first compound 0.316 µM
[10] = second compound 0.316 µM, first compound 1 µM
[11] = second compound 0.316 µM, first compound 3.16 µM
[12] = second compound 0.316 µM, first compound 10 µM
[13] = second compound 1 µM, first compound 0.0316 µM
[14] = second compound 1 µM, first compound 0.1 µM
[15] = second compound 1 µM, first compound 0.316 µM
[16] = second compound 1 µM, first compound 1 µM
[17] = second compound 1 µM, first compound 3.16 µM
[18] = second compound 1 µM, first compound 10 µM
[19] = second compound 3.16 µM, first compound 0.0316 µM
[20] = second compound 3.16 µM, first compound 0.1 µM
[21] = second compound 3.16 µM, first compound 0.316 µM
[22] = second compound 3.16 µM, first compound 1 µM
[23] = second compound 3.16 µM, first compound 3.16 µM
[24] = second compound 3.16 µM, first compound 10 µM
[25] = second compound 10 µM, first compound 0.0316 µM
[26] = second compound 10 µM, first compound 0.1 µM
[27] = second compound 10 µM, first compound 0.316 µM
[28] = second compound 10 µM, first compound 1 µM
[29] = second compound 10 µM, first compound 3.16 µM
[30] = second compound 10 µM, first compound 10 µM
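Further: luminescence taken as a proxy for viable cell amount.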
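Wherever viability, T/C is given: percent of DMSO vehicle control where 100% means growth equal to vehicle.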

pIC50 (second compound 0.1 µM): < 5.00
pIC50 (second compound 0.316 µM): < 5.00
pIC50 (second compound 1 µM): < 5.00
pIC50 (second compound 3.16 µM): < 5.00
pIC50 (second compound 10 µM): < 5.00
SMILES: CC(C)c1c(-c2ccccc2)nc2c(C#N)c[nH]n2c1=O + CC(CO)NC(=O)c1cc(-c2ccc(Cl)cc2)nn(-c2cnn(C)c2)c1=O
viability, T/C [1]: 94.2%
viability, T/C [2]: 96.5%
viability, T/C [3]: 87.5%
viability, T/C [4]: 86.1%
viability, T/C [5]: 87.3%
viability, T/C [6]: 80.8%
viability, T/C [7]: 88.2%
viability, T/C [8]: 95.5%
viability, T/C [9]: 100%
viability, T/C [10]: 78.9%
viability, T/C [11]: 84.1%
viability, T/C [12]: 78.5%
viability, T/C [13]: 82%
viability, T/C [14]: 88.7%
viability, T/C [15]: 83.8%
viability, T/C [16]: 87.3%
viability, T/C [17]: 83.4%
viability, T/C [18]: 82%
viability, T/C [19]: 70.3%
viability, T/C [20]: 96.7%
viability, T/C [21]: 73.3%
viability, T/C [22]: 69%
viability, T/C [23]: 85%
viability, T/C [24]: 78.1%
viability, T/C [25]: 73%
viability, T/C [26]: 76.5%
viability, T/C [27]: 66.2%
viability, T/C [28]: 69.2%
viability, T/C [29]: 67.4%
viability, T/C [30]: 69.4%

pIC50 (second compound 0.1 µM): 6.16
pIC50 (second compound 0.316 µM): 6.26
pIC50 (second compound 1 µM): 6.25
pIC50 (second compound 3.16 µM): 6.24
pIC50 (second compound 10 µM): 6.17
SMILES: COc1cccc2c1C(=O)c1c(O)c3c(c(O)c1C2=O)CC(O)(C(=O)CO)CC3OC1CC(N)C(O)C(C)O1 (stereo not given) + Cc1ccccc1N=Nc1ccc(NC(=O)c2ccnn2C)c(C)c1
viability, T/C [1]: 92.4%
viability, T/C [2]: 90%
viability, T/C [3]: 69.9%
viability, T/C [4]: 40.7%
viability, T/C [5]: 11.5%
viability, T/C [6]: 0.88%
viability, T/C [7]: 93.5%
viability, T/C [8]: 89.7%
viability, T/C [9]: 59.3%
viability, T/C [10]: 38.2%
viability, T/C [11]: 11.3%
viability, T/C [12]: 0.75%
viability, T/C [13]: 79.1%
viability, T/C [14]: 95.6%
viability, T/C [15]: 64.9%
viability, T/C [16]: 32.1%
viability, T/C [17]: 10.6%
viability, T/C [18]: 0.84%
viability, T/C [19]: 92.5%
viability, T/C [20]: 85.9%
viability, T/C [21]: 67.2%
viability, T/C [22]: 34.2%
viability, T/C [23]: 8.26%
viability, T/C [24]: 0.48%
viability, T/C [25]: 80.8%
viability, T/C [26]: 82.3%
viability, T/C [27]: 69.9%
viability, T/C [28]: 40.4%
viability, T/C [29]: 5.43%
viability, T/C [30]: 2.16%

pIC50 (second compound 0.1 µM): < 6.00
pIC50 (second compound 0.316 µM): < 6.00
pIC50 (second compound 1 µM): < 6.00
pIC50 (second compound 3.16 µM): < 6.00
pIC50 (second compound 10 µM): < 6.00
SMILES: Nc1ncn(C2CC(O)C(CO)O2)c(=O)n1 (stereo not given) + Cc1ccccc1N=Nc1ccc(NC(=O)c2ccnn2C)c(C)c1
viability, T/C (second compound 0.1 µM, first compound 0.00316 µM): 96.5%
viability, T/C (second compound 0.1 µM, first compound 0.01 µM): 99.1%
viability, T/C [1]: 94.8%
viability, T/C [2]: 85%
viability, T/C [3]: 83.2%
viability, T/C [4]: 83.9%
viability, T/C (second compound 0.316 µM, first compound 0.00316 µM): 97%
viability, T/C (second compound 0.316 µM, first compound 0.01 µM): 93.6%
viability, T/C [7]: 92.1%
viability, T/C [8]: 90.1%
viability, T/C [9]: 76.5%
viability, T/C [10]: 87%
viability, T/C (second compound 1 µM, first compound 0.00316 µM): 86.2%
viability, T/C (second compound 1 µM, first compound 0.01 µM): 101%
viability, T/C [13]: 88%
viability, T/C [14]: 89.7%
viability, T/C [15]: 75.4%
viability, T/C [16]: 92.6%
viability, T/C (second compound 3.16 µM, first compound 0.00316 µM): 95.2%
viability, T/C (second compound 3.16 µM, first compound 0.01 µM): 97.6%
viability, T/C [19]: 87%
viability, T/C [20]: 75%
viability, T/C [21]: 79.4%
viability, T/C [22]: 65.5%
viability, T/C (second compound 10 µM, first compound 0.00316 µM): 85.9%
viability, T/C (second compound 10 µM, first compound 0.01 µM): 90.9%
viability, T/C [25]: 86.6%
viability, T/C [26]: 72.4%
viability, T/C [27]: 74.2%
viability, T/C [28]: 68.3%
